# Organism: Rattus norvegicus
# Assay: DrugMatrix - Regimen: Daily Repeat
# Type: toxicity, organism-based, Sprague-Dawley
# Parameters: regimen Daily Repeat, gender Male, age 6-8 weeks
# Conditions: in vivo, po, route oral GAVAGE, […]; for ABSOLUTE BASOPHIL / ABSOLUTE EOSINOPHIL / ABSOLUTE LYMPHOCYTE / ABSOLUTE MONOCYTE / ABSOLUTE SEGMENTED NEUTROPHIL / BASOPHIL / EOSINOPHIL / ERYTHROCYTE COUNT / HEMATOCRIT / HEMOGLOBIN / LEUKOCYTE COUNT / LYMPHOCYTE / MEAN CORPUSCULAR HEMOGLOBIN / MEAN CORPUSCULAR VOLUME / MONOCYTE / NEUTROPHIL / NUCLEATED RED BLOOD CELLS / PLATELET COUNT: tissue Blood; for ALANINE AMINOTRANSFERASE / ALBUMIN / ALKALINE PHOSPHATASE / ASPARTATE AMINOTRANSFERASE / BLOOD UREA NITROGEN / CARBON DIOXIDE / CHLORIDE / CHOLESTEROL / CREATINE PHOSPHOKINASE / CREATININE / GLUCOSE / LACTATE DEHYDROGENASE / LIPASE / PHOSPHORUS / POTASSIUM / SODIUM / TOTAL BILIRUBIN / TOTAL PROTEIN / URIC ACID: tissue Plasma
# [1] = 0 mg/kg, 72 h, dose level Control, time 3 day
# [2] = 0 mg/kg, 120 h, dose level Control, time 5 day
# [3] = 70 mg/kg, 72 h, dose level M1, time 3 day
compound,measurement,setting,value
CCCCCCCCc1ccc(O)cc1 [4-OCTYLPHENOL],ABSOLUTE BASOPHIL,[1],0 CELLS/uL
same,ABSOLUTE EOSINOPHIL,[1],0 CELLS/uL
same,ABSOLUTE LYMPHOCYTE,[1],11091.17 CELLS/uL
same,ABSOLUTE MONOCYTE,[1],172.17 CELLS/uL
same,ABSOLUTE SEGMENTED NEUTROPHIL,[1],1186.67 CELLS/uL
same,BASOPHIL,[1],0%
same,EOSINOPHIL,[1],0%
same,ERYTHROCYTE COUNT,[1],5.87 x10E6/uL
same,HEMATOCRIT,[1],36.87%
same,HEMOGLOBIN,[1],14.03 G/DL
same,LEUKOCYTE COUNT,[1],12.45 x10E3/uL
same,LYMPHOCYTE,[1],88.67%
same,MEAN CORPUSCULAR HEMOGLOBIN,[1],23.93 pg
same,MEAN CORPUSCULAR VOLUME,[1],62.73 fL
same,MONOCYTE,[1],1.5%
same,NEUTROPHIL,[1],9.83%
same,NUCLEATED RED BLOOD CELLS,[1],0 /100WBC
same,PLATELET COUNT,[1],1150.33 x10E3/uL
same,ALANINE AMINOTRANSFERASE,[1],67.17 u/L
same,ALBUMIN,[1],4.03 G/DL
same,ALKALINE PHOSPHATASE,[1],462.5 u/L
same,ASPARTATE AMINOTRANSFERASE,[1],88 u/L
same,BLOOD UREA NITROGEN,[1],13.17 mg/dL
same,CARBON DIOXIDE,[1],29.33 mmol/L
same,CHLORIDE,[1],101 MEQ/L
same,CHOLESTEROL,[1],69.17 mg/dL
same,CREATINE PHOSPHOKINASE,[1],292.5 u/L
same,CREATININE,[1],0.17 mg/dL
same,GLUCOSE,[1],167.5 mg/dL
same,LACTATE DEHYDROGENASE,[1],198.5 u/L
same,LIPASE,[1],10.67 u/L
same,PHOSPHORUS,[1],11.73 mg/dL
same,POTASSIUM,[1],5.91 MEQ/L
same,SODIUM,[1],143.3 MEQ/L
same,TOTAL BILIRUBIN,[1],0.18 mg/dL
same,TOTAL PROTEIN,[1],5.7 G/DL
same,URIC ACID,[1],1.3 mg/dL
same,ABSOLUTE BASOPHIL,[2],0 CELLS/uL
same,ABSOLUTE EOSINOPHIL,[2],64.33 CELLS/uL
same,ABSOLUTE LYMPHOCYTE,[2],12494.67 CELLS/uL
same,ABSOLUTE MONOCYTE,[2],117 CELLS/uL
same,ABSOLUTE SEGMENTED NEUTROPHIL,[2],1340.67 CELLS/uL
same,BASOPHIL,[2],0%
same,EOSINOPHIL,[2],0.33%
same,ERYTHROCYTE COUNT,[2],5.82 x10E6/uL
same,HEMATOCRIT,[2],36.97%
same,HEMOGLOBIN,[2],14.18 G/DL
same,LEUKOCYTE COUNT,[2],14.02 x10E3/uL
same,LYMPHOCYTE,[2],89%
same,MEAN CORPUSCULAR HEMOGLOBIN,[2],24.42 pg
same,MEAN CORPUSCULAR VOLUME,[2],63.52 fL
same,MONOCYTE,[2],0.83%
same,NEUTROPHIL,[2],9.83%
same,NUCLEATED RED BLOOD CELLS,[2],0 /100WBC
same,PLATELET COUNT,[2],1097.83 x10E3/uL
same,ALANINE AMINOTRANSFERASE,[2],58.83 u/L
same,ALBUMIN,[2],3.92 G/DL
same,ALKALINE PHOSPHATASE,[2],414.17 u/L
same,ASPARTATE AMINOTRANSFERASE,[2],89.17 u/L
same,BLOOD UREA NITROGEN,[2],16.83 mg/dL
same,CARBON DIOXIDE,[2],29.17 mmol/L
same,CHLORIDE,[2],100.33 MEQ/L
same,CHOLESTEROL,[2],54.5 mg/dL
same,CREATINE PHOSPHOKINASE,[2],386.17 u/L
same,CREATININE,[2],0.23 mg/dL
same,GLUCOSE,[2],184.17 mg/dL
same,LACTATE DEHYDROGENASE,[2],229.17 u/L
same,LIPASE,[2],10.83 u/L
same,PHOSPHORUS,[2],10.88 mg/dL
same,POTASSIUM,[2],5.97 MEQ/L
same,SODIUM,[2],142.2 MEQ/L
same,TOTAL BILIRUBIN,[2],0.12 mg/dL
same,TOTAL PROTEIN,[2],5.63 G/DL
same,URIC ACID,[2],1.55 mg/dL
same,ABSOLUTE BASOPHIL,[3],0 CELLS/uL
same,ABSOLUTE EOSINOPHIL,[3],0 CELLS/uL
same,ABSOLUTE LYMPHOCYTE,[3],11265.33 CELLS/uL
same,ABSOLUTE MONOCYTE,[3],137 CELLS/uL
same,ABSOLUTE SEGMENTED NEUTROPHIL,[3],1431 CELLS/uL
same,BASOPHIL,[3],0%
same,EOSINOPHIL,[3],0%
same,ERYTHROCYTE COUNT,[3],5.68 x10E6/uL
same,HEMATOCRIT,[3],36.37%
same,HEMOGLOBIN,[3],13.93 G/DL
same,LEUKOCYTE COUNT,[3],12.83 x10E3/uL
same,LYMPHOCYTE,[3],88%
same,MEAN CORPUSCULAR HEMOGLOBIN,[3],24.57 pg
same,MEAN CORPUSCULAR VOLUME,[3],64.1 fL
same,MONOCYTE,[3],1%
same,NEUTROPHIL,[3],11%
same,NUCLEATED RED BLOOD CELLS,[3],0 /100WBC
same,PLATELET COUNT,[3],1181.67 x10E3/uL
same,ALANINE AMINOTRANSFERASE,[3],74 u/L
same,ALBUMIN,[3],3.87 G/DL
same,ALKALINE PHOSPHATASE,[3],534.33 u/L
same,ASPARTATE AMINOTRANSFERASE,[3],88.33 u/L
same,BLOOD UREA NITROGEN,[3],15 mg/dL
same,CARBON DIOXIDE,[3],27.33 mmol/L
same,CHLORIDE,[3],102.33 MEQ/L
same,CHOLESTEROL,[3],67 mg/dL
same,CREATINE PHOSPHOKINASE,[3],215 u/L
same,CREATININE,[3],0.13 mg/dL
same,GLUCOSE,[3],152.67 mg/dL
same,LACTATE DEHYDROGENASE,[3],181.67 u/L
same,LIPASE,[3],10 u/L
same,PHOSPHORUS,[3],11.4 mg/dL
same,POTASSIUM,[3],5.59 MEQ/L
same,SODIUM,[3],144.4 MEQ/L
same,TOTAL BILIRUBIN,[3],0.13 mg/dL
same,TOTAL PROTEIN,[3],5.53 G/DL
same,URIC ACID,[3],1.63 mg/dL

# — ChEMBL document CHEMBL3885881, “DrugMatrix”
